# In publication doi:10.1101/2024.12.02.625520, “Identification of Inhibitors of Chikungunya virus nsP2 ATPase” (bioRxiv, 2025):
# pIC50: −log10 of the molar value. Where two headings read alike, the source gives them in different places.
# Assays:
# CHIKV nsP2 ATPase [1] = target: T1, CHIKV nsP2 ATPase (Chikungunya virus, UniProt Q8JUX6); assay: Secondary CHIKV nsP2 ATPase assay (ADP-Glo); settings: for Hill slope: ADP-Glo dose response
# CHIKV nsP2 ATPase [2] = target: T1, CHIKV nsP2 ATPase; assay: High throughput nsP2 ATPase activity assay (Malachite Green)
# Kinetic solubility = settings: kinetic from dmso stock
# [3] = read-out: Malachite Green % INHIBITION (ORIGINAL)
# [4] = read-out: Malachite Green % INHIBITION (RESCREEN)
# [5] = read-out: ADP-Glo IC50, Avge n=2, 1 nM CHIKV nsP2fl, 30 μM ATP, 30 min pre-incubation
# T1 sequence (Q8JUX6 536-1333): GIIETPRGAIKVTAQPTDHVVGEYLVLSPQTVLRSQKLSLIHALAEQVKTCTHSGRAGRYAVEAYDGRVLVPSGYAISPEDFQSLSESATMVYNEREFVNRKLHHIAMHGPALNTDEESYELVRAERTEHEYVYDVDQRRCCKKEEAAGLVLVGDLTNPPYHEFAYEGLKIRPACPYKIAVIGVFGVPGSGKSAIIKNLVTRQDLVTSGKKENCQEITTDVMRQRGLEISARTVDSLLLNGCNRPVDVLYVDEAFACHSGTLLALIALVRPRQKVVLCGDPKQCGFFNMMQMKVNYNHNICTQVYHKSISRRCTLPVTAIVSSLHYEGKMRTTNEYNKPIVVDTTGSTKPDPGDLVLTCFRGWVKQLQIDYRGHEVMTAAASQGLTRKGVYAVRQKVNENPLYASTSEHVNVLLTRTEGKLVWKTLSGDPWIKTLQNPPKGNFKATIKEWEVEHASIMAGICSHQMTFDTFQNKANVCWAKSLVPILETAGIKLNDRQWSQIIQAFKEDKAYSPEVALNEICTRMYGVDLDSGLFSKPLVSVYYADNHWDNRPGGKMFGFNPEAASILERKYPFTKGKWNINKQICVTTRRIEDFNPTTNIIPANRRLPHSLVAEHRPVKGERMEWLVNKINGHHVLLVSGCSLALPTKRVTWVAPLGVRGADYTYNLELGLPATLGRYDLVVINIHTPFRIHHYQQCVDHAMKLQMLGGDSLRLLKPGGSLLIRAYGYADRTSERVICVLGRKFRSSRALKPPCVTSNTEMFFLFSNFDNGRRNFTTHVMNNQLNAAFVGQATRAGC
Structure (SMILES),pIC50 (CHIKV nsP2 ATPase [1]),Hill slope (CHIKV nsP2 ATPase [1]; Avge n=2),inhibition at 25 µM (CHIKV nsP2 ATPase [2]; [3]) [%],inhibition at 25 µM (CHIKV nsP2 ATPase [2]; [4]) [%],pIC50 (CHIKV nsP2 ATPase [1]; [5]),"pIC50 (CHIKV nsP2 ATPase [1]; read-out: ADP-Glo IC50, Avge n=2, 1 nM CHIKV nsP2fl, 30 μM ATP, 30 min pre-incubation, listed as 1798)",solubility kinetic (Kinetic solubility) [µM]
O=c1c(O)c(-c2ccc(O)c(O)c2)oc2cc(O)cc(O)c12 [RA-0001795],4.57,0.7,62,55,–,–,–
O=C(CN1C(=O)C2C3CCC(C3)C2C1=O)OCC(=O)c1ccc(Cl)cc1 (stereo not shown) [RA-0001796],4.70,0.6,60,55,–,–,–
COc1ccc(OC)c(N2C(=O)/C(=C/c3ccco3)C(=O)NC2=S)c1 [RA-0001798],–,1.4,79,74,5.42,> 5.00,–
Cc1ccc(N2C(=O)/C(=C/C=C/c3ccco3)C(=O)NC2=S)cc1 [RA-0001799],–,2.8,85,64,–,–,–
CCCC(C(=O)O)N1C(=O)/C(=C/c2ccc(-c3ccc(Br)cc3)o2)SC1=S (stereo not shown) [RA-0001801],–,1.4,62,55,4.89,–,–
O=C1c2oc3ccccc3c(=O)c2C(c2ccc(O)cc2)N1Cc1ccccc1Cl (stereo not shown) [RA-0001802],4.83,1,37,51,–,–,–
Cc1cccc(CSc2nsc(SCc3cccc(C)c3)c2C#N)c1 [RA-0001803],–,–,57,61,–,–,–
N#Cc1c(SCc2ccccc2Cl)nsc1SCc1ccccc1Cl [RA-0001804],–,2.35,53,64,–,–,–
N#Cc1c(SCc2cccc(F)c2)nsc1SCc1cccc(F)c1 [RA-0001805],–,–,33,51,–,–,–
Cc1ccc(CSc2nsc(SCc3ccc(C)cc3)c2C#N)cc1 [RA-0001806],–,–,45,53,–,–,–
N#Cc1c(SCc2ccccc2)cc(SCc2ccccc2)cc1SCc1ccccc1 [RA-0001807],–,2,45,60,–,–,–
Cc1c(Cl)ccc2c1NC(C(=O)O)C1CC=CC21 (stereo not shown) [RA-0001808],–,–,63,69,–,–,–
Brc1ccc(-c2csc(N3CCc4ccccc4C3)n2)cc1 [RA-0001809],–,–,58,60,–,–,–
CC1SC2(C(=O)Nc3ccccc32)N(CCc2c[nH]c3ccccc23)C1=O (stereo not shown) [RA-0001810],4.56,2.65,58,76,–,–,–
Fc1cccc(Cl)c1Cn1cccc1C1=NC(CSCc2ccccc2)CO1 (stereo not shown) [RA-0001811],–,–,46,56,–,–,–
CSc1ccc(Cn2cccc2C2=NC(CSCc3ccc(F)cc3)CO2)cc1 (stereo not shown) [RA-0001812],–,–,48,53,–,–,–
Clc1ccccc1CSC1=NC2(CCCCC2)Nc2ccccc21 [RA-0001813],–,–,66,81,–,–,–
Clc1cccc(CSC2=NC3(CCCCC3)Nc3ccccc32)c1 [RA-0001814],–,–,73,54,–,–,–
Fc1cccc(CSC2=NC3(CCCCC3)Nc3ccccc32)c1 [RA-0001815],–,–,81,77,–,–,–
O=C(C1CCCN(c2ccc(Sc3ccc(Br)cc3)nn2)C1)N1CCSCC1 (stereo not shown) [RA-0001816],–,1.2,67,71,5.14,–,–
CN(Cc1ccco1)c1nc(-c2ccc(Cl)cc2)nc2ccccc12 [RA-0001817],–,–,49,56,–,–,–
O=C(CSc1nnc2c(=O)n(-c3cccc(F)c3)ccn12)c1c[nH]c2ccccc12 [RA-0001818],–,–,50,145,–,–,–
COc1cc(Cl)c(NS(=O)(=O)c2c(C)sc(C)c2-c2[nH]nc(C)c2C)c(OC)c1 [RA-0001819],6.22,0.7,66,72,–,–,12.5
O=c1cc(-c2ccc(O)c(O)c2)oc2cc(O)cc(O)c12 [RA-0001820],–,–,60,62,–,–,–
Cc1ccnc(OC2CCOC3(CCN(C(=O)C4(c5ccccc5)CCCC4)CC3)C2)c1 (stereo not shown) [RA-0001821],–,1.25,70,65,5.40,–,14.2
CS(=O)(=O)NCC1CCOC2(CCN(C(=O)C3(c4ccccc4)CCCC3)CC2)C1 (stereo not shown) [RA-0001822],5.64,0.85,84,81,–,–,236
Cc1nc(CC2CCOC3(CCN(C(=O)C4(c5ccccc5)CCCC4)CC3)C2)no1 (stereo not shown) [RA-0001823],5.82,0.87,78,82,–,–,202
Cc1ncc2c(n1)COC21CN(C(=O)C2(c3ccccc3)CCCC2)C1 [RA-0001824],5.25,0.43,79,69,–,–,–
